From PubChem BioAssay (NCI)
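Abbreviation: GI50, concentration required for 50% inhibition of growth. The concentration for full growth arrest is given as TGI.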

Tests used:
Experiment in all cases: NCI tumour cell line growth inhibition, 384-well format
HOP-92 NSCLC = tested on: HOP-92 NSCLC
A498 renal = tested on: A498 renal
CCRF-CEM leukemia = tested on: CCRF-CEM leukemia
EKVX NSCLC = tested on: EKVX NSCLC
MCF7 breast = tested on: MCF7 breast
SK-MEL-2 melanoma = tested on: SK-MEL-2 melanoma
U251 glioblastoma = tested on: U251 glioblastoma
MDA-MB-231 breast = tested on: MDA-MB-231 breast
UO-31 renal = tested on: UO-31 renal
A549 NSCLC = tested on: A549 NSCLC
MDA-MB-468 breast = tested on: MDA-MB-468 breast
786-0 renal = tested on: 786-0 renal
SF-268 CNS = tested on: SF-268 CNS
NCI-H23 lung = tested on: NCI-H23 lung
RXF 393 renal = tested on: RXF 393 renal
NCI-H522 lung = tested on: NCI-H522 lung
T-47D breast = tested on: T-47D breast
HOP-62 NSCLC = tested on: HOP-62 NSCLC
SF-539 CNS = tested on: SF-539 CNS
SR leukemia = tested on: SR leukemia
CAKI-1 renal = tested on: CAKI-1 renal
SK-OV-3 ovarian = tested on: SK-OV-3 ovarian
OVCAR-3 ovarian = tested on: OVCAR-3 ovarian
HT29 colon = tested on: HT29 colon
LOX IMVI melanoma = tested on: LOX IMVI melanoma
HL-60(TB) leukemia = tested on: HL-60(TB) leukemia
PC-3 prostate = tested on: PC-3 prostate
ACHN renal = tested on: ACHN renal
HCT-15 colon = tested on: HCT-15 colon
HCC-2998 colon = tested on: HCC-2998 colon

For N#Cc1ccnc(N2C(=O)CC[C@H]2C(=O)N(c2cncc(F)c2)[C@H](C(=O)NC2CC(F)(F)C2)c2ccccc2Cl)c1, the GI50 (HOP-92 NSCLC) was 34.3 µM, the TGI (HOP-92 NSCLC) was > 100 µM and the GI50 (A498 renal) was > 100 µM. The TGI (A498 renal) was > 100 µM, the GI50 (CCRF-CEM leukemia) was > 72.8 µM and the TGI (CCRF-CEM leukemia) was > 100 µM. For the same compound, the GI50 (EKVX NSCLC) was > 100 µM, the TGI (EKVX NSCLC) was > 100 µM and the GI50 (MCF7 breast) was > 100 µM. The TGI (MCF7 breast) was > 100 µM, the GI50 (SK-MEL-2 melanoma) was > 100 µM and the TGI (SK-MEL-2 melanoma) was > 100 µM. For the same compound, the GI50 (U251 glioblastoma) was > 100 µM, the TGI (U251 glioblastoma) was > 100 µM and the GI50 (MDA-MB-231 breast) was > 100 µM. The TGI (MDA-MB-231 breast) was > 100 µM, the GI50 (UO-31 renal) was > 100 µM and the TGI (UO-31 renal) was > 100 µM. The GI50 (A549 NSCLC) was > 90.8 µM, the TGI (A549 NSCLC) was > 100 µM and the GI50 (MDA-MB-468 breast) was > 100 µM. The TGI (MDA-MB-468 breast) was > 100 µM, the GI50 (786-0 renal) was > 100 µM and the TGI (786-0 renal) was > 100 µM. The GI50 (SF-268 CNS) was > 100 µM, the TGI (SF-268 CNS) was > 100 µM and the GI50 (NCI-H23 lung) was > 89.5 µM. For the same compound, the TGI (NCI-H23 lung) was > 100 µM, the GI50 (RXF 393 renal) was > 77.2 µM and the TGI (RXF 393 renal) was > 100 µM. The GI50 (NCI-H522 lung) was 97.9 µM, the TGI (NCI-H522 lung) was > 100 µM and the GI50 (T-47D breast) was > 100 µM. For the same compound, the TGI (T-47D breast) was > 100 µM, the GI50 (HOP-62 NSCLC) was > 100 µM and the TGI (HOP-62 NSCLC) was > 100 µM. For the same compound, the GI50 (SF-539 CNS) was > 100 µM, the TGI (SF-539 CNS) was > 100 µM and the GI50 (SR leukemia) was 31.4 µM. The TGI (SR leukemia) was > 95.8 µM, the GI50 (CAKI-1 renal) was > 55.4 µM and the TGI (CAKI-1 renal) was > 82.9 µM. For the same compound, the GI50 (SK-OV-3 ovarian) was > 100 µM, the TGI (SK-OV-3 ovarian) was > 100 µM and the GI50 (OVCAR-3 ovarian) was > 96.1 µM. The TGI (OVCAR-3 ovarian) was > 100 µM, the GI50 (HT29 colon) was > 95.3 µM and the TGI (HT29 colon) was > 100 µM. For the same compound, the GI50 (LOX IMVI melanoma) was > 100 µM, the TGI (LOX IMVI melanoma) was > 100 µM and the GI50 (HL-60(TB) leukemia) was > 100 µM. The TGI (HL-60(TB) leukemia) was > 100 µM, the GI50 (PC-3 prostate) was > 100 µM and the TGI (PC-3 prostate) was > 100 µM. For the same compound, the GI50 (ACHN renal) was > 100 µM, the TGI (ACHN renal) was > 100 µM and the GI50 (HCT-15 colon) was > 100 µM. The TGI (HCT-15 colon) was > 100 µM, the GI50 (HCC-2998 colon) was > 100 µM and the TGI (HCC-2998 colon) was > 100 µM.
